Earlier results in patent US20050197342A1, “Substituted nitrogen-containing six-membered amino-heterocycles as vanilloid-1 receptor antagonists for treating pain” (priority 2003, published 2005).

Target: VR1 (Rattus norvegicus, UniProt O35433)
Conditions: Wahl et al., Mol. Pharmacol., 59:9, 2001

Sequence of VR1 (O35433 whole entry): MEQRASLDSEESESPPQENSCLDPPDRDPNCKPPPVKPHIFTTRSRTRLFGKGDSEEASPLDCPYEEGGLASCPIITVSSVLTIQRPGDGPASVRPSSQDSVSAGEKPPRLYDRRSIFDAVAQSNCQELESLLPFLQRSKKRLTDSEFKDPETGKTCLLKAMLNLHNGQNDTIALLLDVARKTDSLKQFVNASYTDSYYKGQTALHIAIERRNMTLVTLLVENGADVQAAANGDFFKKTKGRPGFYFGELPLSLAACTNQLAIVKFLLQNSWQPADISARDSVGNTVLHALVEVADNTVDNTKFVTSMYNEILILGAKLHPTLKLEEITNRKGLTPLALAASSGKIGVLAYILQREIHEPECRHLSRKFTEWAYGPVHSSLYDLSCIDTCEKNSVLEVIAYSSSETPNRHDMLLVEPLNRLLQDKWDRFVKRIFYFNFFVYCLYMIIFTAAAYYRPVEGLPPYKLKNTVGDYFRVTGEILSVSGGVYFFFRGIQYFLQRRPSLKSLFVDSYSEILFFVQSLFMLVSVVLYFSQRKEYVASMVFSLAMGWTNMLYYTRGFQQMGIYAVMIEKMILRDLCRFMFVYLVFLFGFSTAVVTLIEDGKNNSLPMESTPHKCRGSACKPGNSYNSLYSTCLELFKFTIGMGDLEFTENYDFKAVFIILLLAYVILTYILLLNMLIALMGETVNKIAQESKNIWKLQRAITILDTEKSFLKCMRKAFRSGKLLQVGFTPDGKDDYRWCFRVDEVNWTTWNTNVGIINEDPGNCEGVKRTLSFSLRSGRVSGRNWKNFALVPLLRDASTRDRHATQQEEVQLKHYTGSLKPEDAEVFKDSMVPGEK

## C=C(C)[C@]12C[C@@H](C)[C@@]34O[C@](Cc5ccccc5)(O[C@@H]1[C@@H]3C=C(COC(=O)Cc1cc(I)c(O)c(OC)c1)C[C@]1(O)C(=O)C(C)=C[C@@H]41)O2 [Iodo-resiniferatoxin]
  antagonist of VR1: nanomolar antagonist
